PubChem BioAssay (NCI)
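Tested at 5 concentrations; 48 h exposure; 96-well plates; endpoints linearly interpolated, else capped at highest concentration. GI50 marks 50% less growth. Definition used: TGI = concentration required for complete inhibition of growth.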

Tests used:
Experiment in all cases: growth of human tumour cells (NCI), 48 h
[1] = test system: COLO 205 colon
[2] = test system: NCI-H226 lung
[3] = test system: OVCAR-3 ovarian
[4] = test system: SF-539 CNS
[5] = test system: BT-549 breast
[6] = test system: MDA-MB-231 breast
[7] = test system: HS 578T breast
[8] = test system: UACC-62 melanoma
[9] = test system: NCI/ADR-RES ovarian
[10] = test system: SF-268 CNS

Compound | TGI [1] [µM] | TGI [2] [µM] | TGI [3] [µM] | TGI [4] [µM] | TGI [5] [µM] | TGI [6] [µM] | TGI [7] [µM] | TGI [8] [µM] | TGI [9] [µM] | TGI [10] [µM] | GI50 [1] [µM] | GI50 [2] [µM] | GI50 [3] [µM] | GI50 [4] [µM] | GI50 [5] [µM] | GI50 [6] [µM] | GI50 [7] [µM] | GI50 [8] [µM] | GI50 [9] [µM] | GI50 [10] [µM]
CN(C)c1ccc(/C=C(\NC(=O)c2ccccc2)C2=NC(CCC(=O)O)C(=O)O2)cc1 (stereo not given) | > 50 | > 50 | > 50 | > 50 | > 50 | > 50 | > 50 | > 50 | > 50 | > 50 |  |  |  |  |  |  |  |  |  | 
C=CCN(CCNS(=O)(=O)c1ccc(C)cc1)S(=O)(=O)c1ccc(C)cc1 | > 60.5 | > 100 | > 100 | > 100 | 61 | > 100 | > 100 | > 100 | > 100 | > 100 |  |  |  |  |  |  |  |  |  | 
CCOC(=O)NC(OC)(C(F)(F)F)C(F)(F)F | > 100 | > 100 | > 100 | > 100 | > 100 | > 100 | > 100 | > 100 | > 100 | > 100 |  |  |  |  |  |  |  |  |  | 
COC(=O)c1c(O)ccc2[nH]c3c(O)c4ccccc4cc3c12 | 37.3 | > 100 | 31.6 | 60.3 | > 100 | > 100 | 72.8 | > 100 | 78.4 | 54.7 |  |  |  |  |  |  |  |  |  | 
O=C(N/N=C\c1ccc(N(CCCl)CCCl)cc1[N+](=O)[O-])c1cccnc1 | > 100 | > 100 | > 100 | > 100 | > 100 | > 100 | > 100 | > 100 | > 100 | > 100 | > 100 | > 100 | > 100 | > 100 | > 100 | > 100 | > 100 | > 100 | > 100 | > 100
O=C(NC(=O)c1cc(-c2ccccc2)n[nH]1)c1ccccc1 | > 100 | > 100 | > 100 | > 100 | > 100 | > 100 | > 100 | > 100 | > 100 | > 100 |  |  |  |  |  |  |  |  |  | 
COC(=O)c1ccc(C)cc1CC1Cc2ccc(C)cc2C1=O (stereo not given) | 26.1 | 27.2 | 25.3 | 19.5 | 52.6 | 77.4 | 48.9 | 51.4 | 18.3 | 61.7 |  |  |  |  |  |  |  |  |  | 
Cc1ccc(-c2nc(N/N=C/c3ccc(O)cc3)c3ccccc3n2)cc1 | > 100 | > 100 | > 100 | > 100 | > 100 | 91.5 | > 100 | 26.4 | > 100 | > 100 |  |  |  |  |  |  |  |  |  | 
Cc1n[nH]c(=O)n1/N=C\c1ccccc1 | > 100 | > 100 | > 100 | > 100 | > 100 | > 100 | > 100 | > 100 | > 100 | > 100 |  |  |  |  |  |  |  |  |  | 
O=C(/C=C/c1cccc(Oc2ccccc2)c1)NCc1ccc(C(=O)NCCc2ccccc2)cc1 | > 100 | > 100 | > 100 | > 100 | > 100 | > 100 | > 100 | > 100 | > 100 | > 100 |  |  |  |  |  |  |  |  |  | 
Cc1cc(S(=O)(=O)Nc2nc3ccccc3nc2-c2ccc(Cl)cc2)c(S)cc1Cl | 30.2 | 47.9 | 29.9 | 34 | 50.6 | 54 | 73 | 25.4 | 36.9 | 35.3 |  |  |  |  |  |  |  |  |  | 
COc1ccc(N=NC(=O)NC(CC(C)C)C(N)=O)cc1 (stereo not given) | 24.9 | > 100 | > 100 | > 31.6 | > 100 | > 31.6 | > 100 | > 100 | > 100 | > 100 |  |  |  |  |  |  |  |  |  | 
Cn1cc(-c2ccc3cc(-c4ccc(CC(=O)Nc5cc(C(C)(C)C)on5)cc4)cnc3c2)cn1 | > 100 | 34.6 | 12.7 | 14.4 | 31.8 | 12.2 | 15.2 | 3.12 | 5.11 | 14.8 | 2.95 | 2.46 | 2.49 | 0.339 | 2.08 | 2.26 | 0.397 | 1.02 | 1.84 | 1.96
CC(=O)Oc1c2c(c3n(c1=O)CCCC3)C(=O)N(c1ccccc1)C2=O | > 100 | > 100 | > 100 | > 100 | > 100 | > 100 | > 100 | > 100 | > 100 | > 100 |  |  |  |  |  |  |  |  |  | 
COc1ccc(C2C(C#N)=C(S)N(C3OC(COC(C)=O)C(OC(C)=O)C(OC(C)=O)C3OC(C)=O)C(c3ccccc3)=C2C(C)=O)cc1 (stereo not given) | > 100 | > 100 | > 100 | > 100 | > 100 | > 100 | > 100 | > 100 | > 100 | > 100 |  |  |  |  |  |  |  |  |  | 
CC(C)(C)c1cc(OCc2nn3c(Cc4ccccc4)nnc3s2)c(Cl)cc1OCc1nn2c(Cc3ccccc3)nnc2s1 | > 100 | > 100 | 60.4 | > 100 | > 100 | > 100 | > 100 | > 100 | > 100 | > 100 |  |  |  |  |  |  |  |  |  | 
CC1CC/C(=C\c2ccc(F)cc2)C(=O)/C1=C/c1ccc(F)cc1 (stereo not given) | 18.5 | 24.1 | 28.1 | 9.15 | 10.1 | 6.56 | 31.4 | 24.7 | 5.75 | 14.6 |  |  |  |  |  |  |  |  |  | 

Compound | TGI [1] [µM] | TGI [2] [µM] | TGI [3] [µM] | TGI [4] [µM] | TGI [5] [µM] | TGI [6] [µM] | TGI [7] [µM] | TGI [8] [µM] | TGI [9] [µM] | TGI [10] [µM] | GI50 [1] [µM] | GI50 [2] [µM] | GI50 [3] [µM] | GI50 [4] [µM] | GI50 [5] [µM] | GI50 [6] [µM] | GI50 [7] [µM] | GI50 [8] [µM] | GI50 [9] [µM] | GI50 [10] [µM]
CCCCCCCCCCCCCCC(O)C[N+](C)(CCO)CCO (stereo not given) | 3.19 | 5.63 | 12.1 | 7.21 | 10.8 | 3.76 | 7.87 | 11.1 | 49 | 5.16 |  |  |  |  |  |  |  |  |  | 
Nc1nc(Cl)cc(NC2(CO)CCC2)n1 | > 100 | > 100 | > 100 | > 100 | > 100 | > 100 | > 100 | > 100 | > 100 | > 100 |  |  |  |  |  |  |  |  |  | 
CSc1ccn(C2CC(F)C(CO)O2)c(=O)n1 (stereo not given) | > 100 | > 100 | > 100 | > 100 | > 100 | > 100 | > 100 | > 100 | > 100 | > 100 |  |  |  |  |  |  |  |  |  | 
Cc1cc(S(=O)(=O)Nc2nnc3cnc4ccccc4n23)c(S)cc1Cl | > 100 | > 100 | > 100 | > 100 | > 100 | > 100 | > 100 | > 100 | > 100 | > 100 |  |  |  |  |  |  |  |  |  | 
NC1=Nc2cc(Cl)ccc2Sc2nc3ccccc3n21 | > 100 | > 100 | > 100 | > 100 | > 100 | > 100 | > 100 | > 100 | > 100 | > 100 |  |  |  |  |  |  |  |  |  | 
O=c1[nH]cc(Cl)c(=O)[nH]1 | > 100 | > 100 | > 100 | > 100 | > 100 | > 100 | > 100 | > 100 | > 100 | > 100 |  |  |  |  |  |  |  |  |  | 
COc1ccccc1NC(=O)CC(=O)N1N=C(N2c3ccccc3Sc3ccccc32)CC1c1ccccc1 (stereo not given) | > 100 | > 100 | > 100 | > 100 | > 100 | > 100 | > 100 | > 100 | > 100 | > 100 |  |  |  |  |  |  |  |  |  | 
CCOC(=O)C(Cc1ccc(OC(=O)OC(C)(C)C)cc1)NC(=O)OC(C)(C)C (stereo not given) | > 100 | > 100 | > 100 | > 100 | > 100 | > 100 | > 100 | > 100 | > 100 | > 100 |  |  |  |  |  |  |  |  |  | 
COc1cc2c3c(n(C)c(=O)c2cc1OC)-c1cc2c(cc1/C3=C\CCCI)OCO2 | > 100 | > 100 | > 100 | > 95.3 | > 100 | > 100 | > 75.5 | > 100 | > 100 | > 100 |  |  |  |  |  |  |  |  |  | 
COC1=CC(=O)CC(C)C12Oc1c(Cl)c(OC)cc(OC)c1C2=O (stereo not given) | 64 | > 100 | > 100 | 42.1 | > 89 | 32.5 | > 80 | > 100 | > 76.4 | > 100 |  |  |  |  |  |  |  |  |  | 
CCCCCCCCCCCC[C@@H](O)[C@H]1CCC([C@H](O)CCCCC(=O)CCCCCCCC2=C[C@H](C)OC2=O)O1 (stereo not given in full) | > 30 | > 50 | > 50 | > 50 | > 50 | > 50 | > 32.8 | > 40.9 | > 50 | > 50 |  |  |  |  |  |  |  |  |  | 
Clc1ccc(-c2cn3c(nc4ccccc43)c(/C=C/c3ccco3)n2)cc1 | > 100 | > 100 | > 100 | > 100 | > 100 | > 100 | 61.8 | > 100 | > 100 | > 100 |  |  |  |  |  |  |  |  |  | 
COC1=CC2(CC(OC)=C1OC)OC21COc2ccccc2C1=O (stereo not given) | > 100 | > 100 | > 100 | > 100 | > 100 | > 100 | > 100 | > 100 | > 100 | > 100 |  |  |  |  |  |  |  |  |  | 
Cc1nc(C)c(N2CCNCC2)c(=O)[nH]1 | > 100 | > 100 | > 100 | > 100 | > 100 | > 100 | > 100 | > 100 | > 100 | > 100 |  |  |  |  |  |  |  |  |  | 
CC(=O)Oc1c(N2CCCCC2)c(C(=O)c2ccccc2)c(O)c2ccn(N(C)C)c12 | 33.3 | 32.4 | 74.7 | 35.9 | 42.7 | 30.6 | 66.8 | 30.3 | 42.3 | 57.5 |  |  |  |  |  |  |  |  |  | 
C=C1CC(Cn2ccc(=O)[nH]c2=O)(c2ccc(Cl)cc2)OC1=O (stereo not given) | 3.44 | 49.9 | 21.8 | 30.4 | 18 | 31.4 | 38.7 | 13.4 | 19 | 43.5 |  |  |  |  |  |  |  |  |  | 
COC(=O)N[C@H](C(=O)O)C(C)O[Si](C)(C)C(C)(C)C (stereo not given in full) | > 100 | > 100 | > 100 | > 100 | > 100 | > 100 | > 100 | > 100 | > 100 | > 100 |  |  |  |  |  |  |  |  |  | 
